These results are taken from PMC9845330 (Communications Biology, 2023).

The structures appear in SMILES notation. Non-standard residues stand in square brackets, D forms with d. Residues, ends and D or L forms follow the SMILES beside them. *: point of attachment. X1 = O=C(CCCC[C@@H]1SC[C@@H]2NC(=O)N[C@@H]21)NCCCOCCOCCOCCCN*; PEG12 = NCCOCCOCCOCCOCCOCCOCCOCCOCCOCCOCCOCCOCCC(=O)O

The test system of the assay is Lysosome labelled H1299 cells. Description: Colocalization with lysosomes by confocal microscopy. Type of assay: cell-based, human. The settings on record: 24 h, Streptavidin Alexa Fluor 555 conjugate. On the procedure: Lysosome-labelled cells (green) were treated with MGS4_V8-Streptavidin Alexa Fluor 555 for 30 min, 1 h, 4 h, or 24 h. Peptide-containing vesicles (red) are seen at 30 min separate from the labeled lysosomes, which by 1 h have started to colocalize with lysosomal vesicles (yellow). MGS4_V8 remains colocalized with lysosomes at 24 h with >70% of the signal colocalized with lysosomes (Fig. 3b). Trafficking, accumulation, and retention in the lysosomes is even more evident in the compressed maximally projected z-stack of the cells (Fig. 3c). Of note, lysosomal regeneration is observed at 24 h as witnessed by increased green signal from the GFP that is not colocalized with previously internalized MGS4_V8. […]
The time course for lysosomal accumulation was performed by imaging at indicated time points using biotinylated peptide conjugated to Streptavidin-Alexa Fluor 555, Streptavidin-Qdot605, or streptavidin-saporin. Saporin was detected using anti-saporin rabbit polyclonal antibody AB-41AP (1:100 dilution) (Advanced Targeting Systems Bio, San Diego, CA). […] Each pixel of a single slice was evaluated for passing the threshold in red (box 1), green (box 2), or both (box3) for colocalization. Mander’s coefficients are calculated for each slice with 0 indicating no colocalization and 1 being complete colocalization.

For the compound `CC(=O)N[C@@H](Cc1ccccc1)C(=O)N[C@@H](Cc1c[nH]cn1)C(=O)N[C@@H](C)C(=O)N[C@H](C(=O)N1CCC[C@H]1C(=O)N[C@@H](CCC(N)=O)C(=O)N[C@@H](CO)C(=O)N[C@@H](Cc1ccccc1)C(=O)N[C@@H](Cc1ccc(O)cc1)C(=O)N[C@H](C(=O)NCCOCCOCCOCCOCCOCCOCCOCCOCCOCCOCCOCCOCCC(=O)N[C@@H](CCC(=O)NCCCOCCOCCOCCCNC(=O)CCCC[C@@H]1SC[C@@H]2NC(=O)N[C@@H]21)C(N)=O)[C@@H](C)O)C(C)C` [MGS4_V8] (Ac-FHAVPQSFYT[PEG12]E(X1)-NH2), the “signal colocalized with lysosomes” value is on record as > 70%.
